Legend:
Assay in all cases: cells
Assay type in all cases: functional, cell-based
Settings in all cases: Homo sapiens
KOSC-2 = tested on: KOSC-2;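 further: growth inhibition of KOSC-2 cells, read out by a cell viability assay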
Description: SANGER: Inhibition of human KOSC-2 cell growth in a cell viability assay.

T84 = tested on: T84;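 further: growth inhibition measured with a cell viability readout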
Description: SANGER: Inhibition of human T84 cell growth in a cell viability assay.

BCPAP = tested on: BCPAP;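 further: growth inhibition of BCPAP cells, read out in a cell viability assay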
Description: SANGER: Inhibition of human BCPAP cell growth in a cell viability assay.

UACC-62 = tested on: UACC-62;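 further: growth inhibition of human UACC-62 cells, read out by a cell viability assay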
Description: SANGER: Inhibition of human UACC-62 cell growth in a cell viability assay.

ABC-1 = tested on: ABC-1;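 further: growth inhibition of human ABC-1 cells, read out by a cell viability assay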
Description: SANGER: Inhibition of human ABC-1 cell growth in a cell viability assay.

769-P = tested on: 769-P
Description: SANGER: Inhibition of human 769-P cell growth in a cell viability assay.

NCI-H1792 = tested on: NCI-H1792;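 further: growth inhibition of human NCI-H1792 cells, read out as cell viability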
Description: SANGER: Inhibition of human NCI-H1792 cell growth in a cell viability assay.

SCC-9 = tested on: SCC-9;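 further: Read-out is a cell viability assay, with values giving inhibition of cell growth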
Description: SANGER: Inhibition of human SCC-9 cell growth in a cell viability assay.

Calu-3 = tested on: Calu-3;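 further: growth inhibition of human Calu-3 cells, determined with a cell viability assay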
Description: SANGER: Inhibition of human Calu-3 cell growth in a cell viability assay.

OE33 = tested on: OE33;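 further: growth inhibition of human OE33 cells, measured by a cell viability assay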
Description: SANGER: Inhibition of human OE33 cell growth in a cell viability assay.

KYSE-150 cell line = tested on: KYSE-150 cell line;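 further: growth inhibition of human KYSE-150 cells, read out with a cell viability assay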
Description: SANGER: Inhibition of human KYSE-150 cell growth in a cell viability assay.

5637 = tested on: 5637
Description: SANGER: Inhibition of human 5637 cell growth in a cell viability assay.

A2780 = tested on: A2780;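 further: growth inhibition of A2780 cells, read out with a cell viability assay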
Description: SANGER: Inhibition of human A2780 cell growth in a cell viability assay.

NCI-H1793 = tested on: NCI-H1793;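 further: cell growth inhibition, read out by a cell viability assay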
Description: SANGER: Inhibition of human NCI-H1793 cell growth in a cell viability assay.

HCC1419 = tested on: HCC1419;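 further: growth inhibition of human HCC1419 cells, read out as cell viability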
Description: SANGER: Inhibition of human HCC1419 cell growth in a cell viability assay.

A204 = tested on: A204;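 further: growth inhibition of human A204 cells, read out with a cell viability assay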
Description: SANGER: Inhibition of human A204 cell growth in a cell viability assay.

OVCAR-8 = tested on: OVCAR-8;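 further: growth inhibition of human OVCAR-8 cells, read out by a cell viability assay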
Description: SANGER: Inhibition of human OVCAR-8 cell growth in a cell viability assay.

NCI-H661 = tested on: NCI-H661;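 further: cell viability assay read-out, IC50 being the concentration that inhibits growth of the cells by half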
Description: SANGER: Inhibition of human NCI-H661 cell growth in a cell viability assay.

SK-N-AS = tested on: SK-N-AS;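 further: growth inhibition of human SK-N-AS cells, measured with a cell viability assay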
Description: SANGER: Inhibition of human SK-N-AS cell growth in a cell viability assay.

SAS = tested on: SAS;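 further: growth inhibition of SAS cells, read out with a cell viability assay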
Description: SANGER: Inhibition of human SAS cell growth in a cell viability assay.

NCI-H460 = tested on: NCI-H460;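 further: cell viability assay scoring growth inhibition of human NCI-H460 cells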
Description: SANGER: Inhibition of human NCI-H460 cell growth in a cell viability assay.

VM-CUB-1 = tested on: VM-CUB-1;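 further: cell viability assay measuring growth inhibition of the human VM-CUB-1 cell line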
Description: SANGER: Inhibition of human VM-CUB-1 cell growth in a cell viability assay.

SW1990 = tested on: SW1990;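 further: cell growth inhibition determined with a viability assay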
Description: SANGER: Inhibition of human SW1990 cell growth in a cell viability assay.

NCI-H1651 = tested on: NCI-H1651;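 further: Read-out is a cell viability assay, with IC50 expressing inhibition of NCI-H1651 cell growth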
Description: SANGER: Inhibition of human NCI-H1651 cell growth in a cell viability assay.

HCT-116 = tested on: HCT-116
Description: SANGER: Inhibition of human HCT-116 cell growth in a cell viability assay.

HO-1-N-1 = tested on: HO-1-N-1;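 further: growth inhibition of human HO-1-N-1 cells, read out with a cell viability assay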
Description: SANGER: Inhibition of human HO-1-N-1 cell growth in a cell viability assay.

BFTC-905 = tested on: BFTC-905
Description: SANGER: Inhibition of human BFTC-905 cell growth in a cell viability assay.

CAL-27 = tested on: CAL-27;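 further: Viability-based readout, IC50 reflecting inhibition of CAL-27 cell growth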
Description: SANGER: Inhibition of human CAL-27 cell growth in a cell viability assay.

RVH-421 = tested on: RVH-421
Description: SANGER: Inhibition of human RVH-421 cell growth in a cell viability assay.

MHH-ES-1 = tested on: MHH-ES-1;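 further: cell growth inhibition measured by a cell viability assay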
Description: SANGER: Inhibition of human MHH-ES-1 cell growth in a cell viability assay.

LK-2 = tested on: LK-2;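 further: growth inhibition of LK-2 cells, read out with a viability assay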
Description: SANGER: Inhibition of human LK-2 cell growth in a cell viability assay.

NCI-H28 = tested on: NCI-H28;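 further: growth inhibition of human NCI-H28 cells, read out as cell viability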
Description: SANGER: Inhibition of human NCI-H28 cell growth in a cell viability assay.

HCC1954 = tested on: HCC1954;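 further: growth inhibition of human HCC1954 cells, read out with a cell viability assay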
Description: SANGER: Inhibition of human HCC1954 cell growth in a cell viability assay.

HOS = tested on: HOS;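 further: growth inhibition of human HOS cells, read out with a cell viability assay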
Description: SANGER: Inhibition of human HOS cell growth in a cell viability assay.

NCI-H522 = tested on: NCI-H522;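 further: cell viability assay measuring growth inhibition of human NCI-H522 cells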
Description: SANGER: Inhibition of human NCI-H522 cell growth in a cell viability assay.

TCC-SUP = tested on: TCC-SUP;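 further: growth inhibition of TCC-SUP cells, read out with a cell viability assay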
Description: SANGER: Inhibition of human TCCSUP cell growth in a cell viability assay.

KYSE-520 cell line = tested on: KYSE-520 cell line;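 further: growth inhibition of human KYSE-520 cells, read out with a viability assay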
Description: SANGER: Inhibition of human KYSE-520 cell growth in a cell viability assay.

NCI-H2087 = tested on: NCI-H2087;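 further: growth inhibition determined with a cell viability readout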
Description: SANGER: Inhibition of human NCI-H2087 cell growth in a cell viability assay.

Capan-2 = tested on: Capan-2;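 further: Capan-2 cell growth inhibition, read out with a viability assay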
Description: SANGER: Inhibition of human Capan-2 cell growth in a cell viability assay.

NCI-H292 = tested on: NCI-H292;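 further: growth inhibition of NCI-H292 cells, read out with a cell viability assay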
Description: SANGER: Inhibition of human NCI-H292 cell growth in a cell viability assay.

SN12C = tested on: SN12C;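 further: growth inhibition of human SN12C cells, measured by a cell viability assay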
Description: SANGER: Inhibition of human SN12C cell growth in a cell viability assay.

A-375 = tested on: A-375;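 further: growth inhibition of A375 cells, read out with a cell viability assay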
Description: SANGER: Inhibition of human A375 cell growth in a cell viability assay.

NCI-H358 = tested on: NCI-H358;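 further: growth inhibition of NCI-H358 human cells, read out with a cell viability assay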
Description: SANGER: Inhibition of human NCI-H358 cell growth in a cell viability assay.

J82 = tested on: J82;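 further: growth inhibition of J82 cells, read out with a cell viability assay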
Description: SANGER: Inhibition of human J82 cell growth in a cell viability assay.

SW837 = tested on: SW837;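 further: growth inhibition of SW837 cells, determined with a cell viability assay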
Description: SANGER: Inhibition of human SW837 cell growth in a cell viability assay.

In the case of `NC1(c2ccc(-c3nc4ccn5c(=O)[nH]nc5c4cc3-c3ccccc3)cc2)CCC1` [MK-2206], the IC50 (KOSC-2) is reported as over 4 µM, the IC50 (T84) is reported as over 4 µM and the IC50 (BCPAP) is reported as over 4 µM. The IC50 (UACC-62) was over 4 µM, the IC50 (ABC-1) was 2.33 µM and the IC50 (769-P) was over 4 µM. The IC50 (NCI-H1792) was over 4 µM, the IC50 (SCC-9) was over 4 µM and the IC50 (Calu-3) was over 4 µM. For the same compound, the IC50 (OE33) was over 4 µM, the IC50 (KYSE-150 cell line) was over 4 µM and the IC50 5637 was over 4 µM. The IC50 (A2780) was over 4 µM, the IC50 (NCI-H1793) was over 4 µM and the IC50 (HCC1419) was 0.489 µM. For the same compound, the IC50 (A204) was 2.84 µM, the IC50 (OVCAR-8) was over 4 µM and the IC50 (NCI-H661) was over 4 µM. The IC50 (SK-N-AS) was over 4 µM, the IC50 (SAS) was over 4 µM and the IC50 (NCI-H460) was over 4 µM. It also gave an IC50 (VM-CUB-1) of 2.39 µM, an IC50 (SW1990) of over 4 µM and an IC50 (NCI-H1651) of over 4 µM. The IC50 (HCT-116) was over 4 µM, the IC50 (HO-1-N-1) was over 4 µM and the IC50 (BFTC-905) was over 4 µM. It also gave an IC50 (CAL-27) of over 4 µM, an IC50 (RVH-421) of 3.82 µM and an IC50 (MHH-ES-1) of over 4 µM. The IC50 (LK-2) was over 4 µM, the IC50 (NCI-H28) was over 4 µM and the IC50 (HCC1954) was over 4 µM. For the same compound, the IC50 (HOS) was 1.5 µM, the IC50 (NCI-H522) was over 4 µM and the IC50 (TCC-SUP) was over 4 µM. For the same compound, the IC50 (KYSE-520 cell line) was over 4 µM, the IC50 (NCI-H2087) was over 4 µM and the IC50 (Capan-2) was over 4 µM. It also gave an IC50 (NCI-H292) of over 4 µM and an IC50 (SN12C) of over 4 µM.

In the case of `CS(=O)(=O)N1CCN(Cc2cc3nc(-c4cccc5[nH]ncc45)nc(N4CCOCC4)c3s2)CC1` [PICTILISIB], the IC50 (KOSC-2) is reported as over 4 µM, the IC50 (T84) is reported as over 4 µM and the IC50 (BCPAP) is reported as over 4 µM. For the same compound, the IC50 (UACC-62) was over 4 µM, the IC50 (ABC-1) was over 4 µM and the IC50 (769-P) was 3.83 µM. For the same compound, the IC50 (NCI-H1792) was over 4 µM, the IC50 (SCC-9) was over 4 µM and the IC50 (Calu-3) was 3.71 µM. For the same compound, the IC50 (OE33) was over 4 µM, the IC50 (A-375) was over 4 µM and the IC50 (KYSE-150 cell line) was over 4 µM. The IC50 (NCI-H358) was over 4 µM, the IC50 5637 was 2.71 µM and the IC50 (A2780) was over 4 µM. The IC50 (NCI-H1793) was over 4 µM, the IC50 (HCC1419) was 2.21 µM and the IC50 (A204) was 0.522 µM. The IC50 (OVCAR-8) was over 4 µM, the IC50 (NCI-H661) was over 4 µM and the IC50 (SK-N-AS) was over 4 µM. It also gave an IC50 (SAS) of over 4 µM, an IC50 (J82) of over 4 µM and an IC50 (NCI-H460) of over 4 µM. It also gave an IC50 (VM-CUB-1) of over 4 µM, an IC50 (SW837) of over 4 µM and an IC50 (SW1990) of over 4 µM. The IC50 (NCI-H1651) was over 4 µM, the IC50 (HCT-116) was over 4 µM and the IC50 (HO-1-N-1) was 0.659 µM. The IC50 (BFTC-905) was 1.13 µM, the IC50 (CAL-27) was over 4 µM and the IC50 (RVH-421) was over 4 µM. For the same compound, the IC50 (MHH-ES-1) was over 4 µM, the IC50 (LK-2) was over 4 µM and the IC50 (NCI-H28) was 3.05 µM. It also gave an IC50 (HCC1954) of over 4 µM, an IC50 (HOS) of 1.98 µM and an IC50 (NCI-H522) of over 4 µM. It also gave an IC50 (TCC-SUP) of over 4 µM, an IC50 (KYSE-520 cell line) of over 4 µM and an IC50 (NCI-H2087) of over 4 µM. The IC50 (Capan-2) was over 4 µM, the IC50 (NCI-H292) was 0.974 µM and the IC50 (SN12C) was over 4 µM.

`CN(C)CCOc1ccc(-c2nc(-c3ccncc3)c(-c3ccc4c(c3)CC/C4=N\O)[nH]2)cc1` [SB590885] was tested, and the IC50 (KOSC-2) was over 5 µM, the IC50 (T84) was over 5 µM and the IC50 (BCPAP) was over 5 µM. It also gave an IC50 (UACC-62) of over 5 µM, an IC50 (ABC-1) of over 5 µM and an IC50 (769-P) of over 5 µM. For the same compound, the IC50 (NCI-H1792) was over 5 µM, the IC50 (SCC-9) was over 5 µM and the IC50 (Calu-3) was over 5 µM. It also gave an IC50 (OE33) of over 5 µM, an IC50 (A-375) of 0.282 µM and an IC50 (KYSE-150 cell line) of over 5 µM. It also gave an IC50 5637 of over 5 µM, an IC50 (A2780) of over 5 µM and an IC50 (NCI-H1793) of over 5 µM. It also gave an IC50 (HCC1419) of over 5 µM, an IC50 (A204) of over 5 µM and an IC50 (OVCAR-8) of over 5 µM. The IC50 (NCI-H661) was over 5 µM, the IC50 (SK-N-AS) was over 5 µM and the IC50 (SAS) was over 5 µM. For the same compound, the IC50 (NCI-H460) was over 5 µM, the IC50 (VM-CUB-1) was over 5 µM and the IC50 (SW1990) was over 5 µM. It also gave an IC50 (NCI-H1651) of over 5 µM, an IC50 (HCT-116) of over 5 µM and an IC50 (HO-1-N-1) of over 5 µM. The IC50 (BFTC-905) was over 5 µM, the IC50 (CAL-27) was over 5 µM and the IC50 (RVH-421) was 0.621 µM. The IC50 (MHH-ES-1) was over 5 µM, the IC50 (LK-2) was over 5 µM and the IC50 (NCI-H28) was over 5 µM. The IC50 (HCC1954) was over 5 µM, the IC50 (HOS) was over 5 µM and the IC50 (NCI-H522) was over 5 µM. It also gave an IC50 (TCC-SUP) of over 5 µM, an IC50 (KYSE-520 cell line) of over 5 µM and an IC50 (NCI-H2087) of over 5 µM. The IC50 (Capan-2) was over 5 µM, the IC50 (NCI-H292) was 4.38 µM and the IC50 (SN12C) was over 5 µM.
